Measured values reported in US9387204B2, “Fused bicyclic imidazoles” (BAYER INTELLECTUAL PROPERTY GmbH, priority 2007, dated 2016).

System: phospho-Akt (Ser473)
Assay: Cellular PI3K/Akt pathway assay (phospho-Akt ELISA)
Assay type: cell-based
Details: Homo sapiens; MCF7 cells, β-Heregulin stimulated, 48 h, phospho-Akt1 (Ser473) ELISA
Experimental: In order to study the cellular activity of the compounds according to the present invention, an Enzyme Linked Immunosorbent Assay (ELISA)-based assay has been used specific phospho-AKT. The assay is based on a Sandwich ELISA kit (PathScan™ Phospho-Akt1 (Ser473); Cell Signaling, USA; #7160).
The ELISA Kit detects endogenous levels of phosphorylated Akt protein. A phospho-Akt (Ser473) antibody (Cell Signaling, USA; #9271) has been coated onto the microwells. After incubation with cell lysates, the coated antibody captures the phosphorylated Akt protein. Following extensive washing, Akt1 monoclonal antibody (Cell Signaling, USA; #2967) is added to detect the captured phospho-Akt1 protein. HRP-linked anti-mouse antibody (HRP: horseradish peroxidase; Cell Signaling, USA; #7076) is then used to recognize the bound detection antibody. HRP substrate (=3,3′,5,5′-tetramethylbenzidine (TMB); Cell Signaling, USA; #7160) is added to develop colour. The magnitude of optical density for this developed color is proportional to the quantity of phosphorylated Akt protein. MCF7 cells (ATCC HTB-22) are seeded into 96 well fate bottom plates at a density of 10000 cells/well. 24 hours after seeding, the cells are serum starved using low-serum medium (IMEM media including 0.1% charcoal treated FCS (FCS: fetal calf serum)). […] To stimulate Akt phosphorylation, β-Heregulin (20 ng/ml β-HRG) is added in parallel to the compounds. Wells containing unstimulated control cells (no β-Heregulin stimulation) are incubated with or without the diluted compound. Wells containing untreated control cells (no compound) are filled with medium containing 0.5% v:v DMSO and are or are not stimulated with β-Heregulin.
Cells are harvested and lysed with brief sonification in 1× cell lysis buffer (20 mM Tris (pH7.5), 150 mM NaCl, 1 mM ethylene diaminetetraacetate (EDTA), 1 mM ethylene glycolbis(2-aminoethyl)-N,N,N′,N′-tetraacetic acid (EGTA), 1 vol % Triton X-100, 2.5 mM sodium pyrophosphate, 1 mM β-glycerolphosphate, 1 mM Na3VO4, 1 μg/ml leupeptin). The lysate is centrifuged for 10 min. at 4° C. and the supernatant is transferred to a new tube. 100 μl of sample diluent (0.1 vol % Tween-20, 0.1 vol % sodium azide in phosphate buffered saline (PBS)) are added to a microcentrifuge tube and 100 μl of cell lysate are transferred into the tube and vortexed. 100 μl of each diluted cell lysate are added to the appropriate ELISA well, and incubated overnight at 4° C. The plates are washed 4 times with 1× wash buffer (1 vol % tween-20, 0.33 vol % thymol, in PBS). Next 100 μl of detection antibody (Akt1 (2H10) monoclonal detection antibody; Cell Signaling, USA; #2967) are added to each well and incubation continued for 1 h at 37° C. The washing procedure is repeated between each step. 100 μl of secondary antibody (anti-mouse IgG HRP-linked antibody; Cell Signaling, USA; #7076) are added to each well and incubated for 30 min. at 37° C. Than, 100 μl of TMB substrate (0.05% 3,3′,5,5′ tetramethylbenzidine, 0.1% hydrogen peroxide, complex polypeptides in a buffered solution; Cell Signaling, USA; #7160) are added to each well and incubated for 30 min. at 25° C. Finally 100 μl of STOP solution (0.05 vol % α and β unsaturated carbonyl compound) are added to each well and the plate are shaked gently. The absorbance is measured at ? 450 nm (Wallac Victor2; Perkin Elmer, USA) within 30 min. after adding the STOP solution. The analysis of the data is performed using a statistical program (Excel; Microsoft, USA). Preferred compounds show an inhibitory activity towards Akt phosphorylation below 10 μM.

Which IC50 does the source give for `c1ccc(-c2nnc(C3CCN(Cc4ccc(-c5nc6sccn6c5-c5ncco5)cc4)CC3)[nH]2)nc1` [Example 43, 5-(1,3-oxazol-2-yl)-6-(4-{[4-(5-pyridin-2-yl-4H-1,2,4-triazol-3-yl)piperidin-1-yl]methyl}phenyl)imidazo[2,1-b][1,3]thiazole] here?
The IC50 was 1 to 10 µM.

How did the IC50 turn out when `Cc1cccc(-c2nnc(C3CCN(Cc4ccc(-c5nc6c(C#N)cccn6c5-c5ccccc5)cc4)CC3)[nH]2)n1` [Example 62, 2-[4-({4-[5-(6-methylpyridin-2-yl)-4H-1,2,4-triazol-3-yl]piperidin-1-yl}methyl)phenyl]-3-phenylimidazo[1,2-a]pyridine-8-carbonitrile] was run?
The IC50 was under 1 µM.

Same assay, conditions: MCF7 cells, β-Heregulin stimulated, 48 h, phospho-Akt1 (Ser473) ELISA

With `c1ccc(-c2c(-c3ccc(CN4CCC(c5nnc(-c6ccc[nH]6)[nH]5)CC4)cc3)nc3ncccn23)cc1` [Example 106, ′3-phenyl-2-[4-({4-[5-(1H-pyrrol-2-yl)-4H-1,2,4-triazol-3-yl]piperidin-1-yl}methyl)phenyl]imidazo[1,2-a]pyrimidine] as the molecule, how does the IC50 read?
Its IC50 is under 1 µM.

How did the IC50 turn out when `COc1nccn2c(-c3ccccc3)c(-c3ccc(CN4CCC(c5nnc(-c6cccc(C)n6)[nH]5)CC4)cc3)nc12` [Example 65, ′8-methoxy-2-[4-({4-[5-(6-methylpyridin-2-yl)-4H-1,2,4-triazol-3-yl]piperidin-1-yl}methyl)phenyl]-3-phenylimidazo[1,2-a]pyrazine] was run?
Its IC50 is under 1 µM.

System: A549 cells
Assay: Cellular proliferation/cytotoxicity assay (Alamar Blue), A549 cells
Details: Homo sapiens, A549, 72 h, read-out: Anti-proliferative/Cytotoxic activity (A549 cells)

How did the IC50 turn out when `Cc1cccc(-c2nnc(C3CCN(Cc4ccc(-c5nc6c(C#N)cccn6c5-c5ccccc5)cc4)CC3)[nH]2)n1` [Example 62, 2-[4-({4-[5-(6-methylpyridin-2-yl)-4H-1,2,4-triazol-3-yl]piperidin-1-yl}methyl)phenyl]-3-phenylimidazo[1,2-a]pyridine-8-carbonitrile] was run?
Its IC50 is over 10 µM.

Which IC50 does the source give for `COc1ccc(-c2c(-c3ccc(CN4CCC(c5n[nH]c(-c6ccccn6)n5)CC4)cc3)nc3ccccn23)cc1` [Example 15, 3-(4-methoxyphenyl)-2-(4-{[4-(5-pyridin-2-yl-1,2,4-triazol-3-yl)piperidin-1-yl]methyl}phenyl)imidazo[1,2-a]pyridine] here?
Its IC50 is under 10 µM.

With `FC(F)(F)c1ccn2c(-c3ccccc3)c(-c3ccc(CN4CCC(c5n[nH]c(-c6ccccn6)n5)CC4)cc3)nc2n1` [Example 28, 3-phenyl-2-(4-{[4-(5-pyridin-2-yl-1,2,4-triazol-3-yl)piperidin-1-yl]methyl}phenyl)-7-(trifluoromethyl)imidazo[1,2-a]pyrimidine] as the molecule, how does the IC50 read?
The IC50 was over 10 µM.

With `c1ccc(-c2nnc(C3CCN(Cc4ccc(-c5nc6ncccn6c5-c5ccccc5)cc4)CC3)[nH]2)cc1` [Example 121, 3-phenyl-2-(4-{[4-(5-phenyl-4H-1,2,4-triazol-3-yl)piperidin-1-yl]methyl}phenyl)imidazo[1,2-a]pyrimidine] as the molecule, how does the IC50 read?
The IC50 was under 10 µM.

Which IC50 does the source give for `c1ccc(-c2nnc(C3CCN(Cc4ccc(-c5nc6scnn6c5-c5ccccc5)cc4)CC3)[nH]2)cc1` [Example 123, 5-phenyl-6-(4-{[4-(5-phenyl-4H-1,2,4-triazol-3-yl)piperidin-1-yl]methyl}phenyl)imidazo[2,1-b][1,3,4]thiadiazole] here?
Its IC50 is under 10 µM.

How did the IC50 turn out when `Cc1cccn2c(-c3ccccc3)c(-c3ccc(CN4CCC(c5n[nH]c(-c6ccccn6)n5)CC4)cc3)nc12` [Example 8, 8-methyl-3-phenyl-2-(4-{[4-(5-pyridin-2-yl-1,2,4-triazol-3-yl)piperidin-1-yl]methyl}phenyl)imidazo[1,2-a]pyridine] was run?
Its IC50 is under 10 µM.

How did the IC50 turn out when `COC(O)c1cn2c(-c3ccccc3)c(-c3ccc(CN4CCC(c5n[nH]c(-c6ccccn6)n5)CC4)cc3)nc2s1` (stereo not shown) [Example 126, methoxy[5-phenyl-6-(4-{[4-(5-pyridin-2-yl-1H-1,2,4-triazol-3-yl)piperidin-1-yl]methyl}phenyl)imidazo[2,1-b][1,3]thiazol-2-yl]methanol] was run?
The IC50 was under 10 µM.

For `COc1ccc(-c2c(-c3ccc(CN4CCC(c5n[nH]c(-c6ccccn6)n5)CC4)cc3)nc3ncccn23)cc1` [Example 20, 3-(4-methoxyphenyl)-2-(4-{[4-(5-pyridin-2-yl-1,2,4-triazol-3-yl)piperidin-1-yl]methyl}phenyl)imidazo[1,2-a]pyrimidine], which IC50 is on record?
The IC50 was over 10 µM.

`COc1nccn2c(-c3ccccc3)c(-c3ccc(CN4CCC(c5n[nH]c(-c6ccccn6)n5)CC4)cc3)nc12` [Example 27, 8-methoxy-3-phenyl-2-(4-{[4-(5-pyridin-2-yl-1,2,4-triazol-3-yl)piperidin-1-yl]methyl}phenyl)imidazo[1,2-a]pyrazine] was tested. Which IC50 did it give?
Its IC50 is under 10 µM.

With `COc1ccn2c(-c3ccccc3)c(-c3ccc(CN4CCC(c5n[nH]c(-c6ccccn6)n5)CC4)cc3)nc2n1` [Example 24, 7-methoxy-3-phenyl-2-(4-{[4-(5-pyridin-2-yl-1,2,4-triazol-3-yl)piperidin-1-yl]methyl}phenyl)imidazo[1,2-a]pyrimidine] as the molecule, how does the IC50 read?
The IC50 was under 10 µM.

`c1ccc(-c2nc(C3CCN(Cc4ccc(-c5nc6ncccn6c5-c5nccs5)cc4)CC3)n[nH]2)nc1` [Example 39, 2-(4-{[4-(5-pyridin-2-yl-1,2,4-triazol-3-yl)piperidin-1-yl]methyl}phenyl)-3-(1,3-thiazol-2-yl)imidazo[1,2-a]pyrimidine] was tested. Which IC50 did it give?
The IC50 was over 10 µM.

Same assay, conditions: read-out: Anti-proliferative/Cytotoxic activity (A549 cells); A549 cells, 72 h, Alamar Blue (Resazurin)

How did the IC50 turn out when `c1ccc(-c2c(-c3ccc(CN4CCC(c5nnc(-c6ccc[nH]6)[nH]5)CC4)cc3)nc3ncccn23)cc1` [Example 106, ′3-phenyl-2-[4-({4-[5-(1H-pyrrol-2-yl)-4H-1,2,4-triazol-3-yl]piperidin-1-yl}methyl)phenyl]imidazo[1,2-a]pyrimidine] was run?
Its IC50 is over 10 µM.

How did the IC50 turn out when `COc1nccn2c(-c3ccccc3)c(-c3ccc(CN4CCC(c5nnc(-c6cccc(C)n6)[nH]5)CC4)cc3)nc12` [Example 65, ′8-methoxy-2-[4-({4-[5-(6-methylpyridin-2-yl)-4H-1,2,4-triazol-3-yl]piperidin-1-yl}methyl)phenyl]-3-phenylimidazo[1,2-a]pyrazine] was run?
Its IC50 is under 10 µM.

With `N#Cc1ccn2c(-c3ccccc3)c(-c3ccc(CN4CCC(c5nc(-c6ccncc6)n[nH]5)CC4)cc3)nc2c1` [Example 57, ′3-phenyl-2-(4-{[4-(3-pyridin-4-yl-1H-1,2,4-triazol-5-yl)piperidin-1-yl]methyl}phenyl)imidazo[1,2-a]pyridine-7-carbonitrile] as the molecule, how does the IC50 read?
The IC50 was under 10 µM.

`Cc1ccc2nc(-c3ccc(CN4CCC(c5nnc(-c6cccs6)[nH]5)CC4)cc3)c(-c3ccccc3)n2n1` [Example 99, ′6-methyl-3-phenyl-2-[4-({4-[5-(2-thienyl)-4H-1,2,4-triazol-3-yl]piperidin-1-yl}methyl)phenyl]imidazo[1,2-b]pyridazine] was tested. Which IC50 did it give?
The IC50 was under 10 µM.

With `Cc1ccc2nc(-c3ccc(CN4CCC(c5nnc(-c6ccco6)[nH]5)CC4)cc3)c(-c3ccccc3)n2n1` [Example 92, ′2-[4-({4-[5-(2-furyl)-4H-1,2,4-triazol-3-yl]piperidin-1-yl}methyl)phenyl]-6-methyl-3-phenylimidazo[1,2-b]pyridazine] as the molecule, how does the IC50 read?
Its IC50 is under 10 µM.

For `Cc1ccc(-c2nnc(C3CCN(Cc4ccc(-c5nc6sccn6c5-c5ccccc5)cc4)CC3)[nH]2)nc1` [Example 73, ′6-[4-({4-[5-(5-methylpyridin-2-yl)-4H-1,2,4-triazol-3-yl]piperidin-1-yl}methyl)phenyl]-5-phenylimidazo[2,1-b][1,3]thiazole], which IC50 is on record?
The IC50 was under 10 µM.

For `c1ccc(-c2c(-c3ccc(CN4CCC(c5noc(-c6ccccn6)n5)CC4)cc3)nc3ncccn23)cc1` [Example 116, ′3-phenyl-2-(4-{[4-(5-pyridin-2-yl-1,2,4-oxadiazol-3-yl)piperidin-1-yl]methyl}phenyl)imidazo[1,2-a]pyrimidine], which IC50 is on record?
The IC50 was under 10 µM.

With `N#Cc1ccn2c(-c3ccccc3)c(-c3ccc(CN4CCC(c5noc(-c6ccccn6)n5)CC4)cc3)nc2c1` [Example 115, ′3-phenyl-2-(4-{[4-(5-pyridin-2-yl-1,2,4-oxadiazol-3-yl)piperidin-1-yl]methyl}phenyl)imidazo[1,2-a]pyridine-7-carbonitrile] as the molecule, how does the IC50 read?
The IC50 was over 10 µM.

For `c1ccc(-c2c(-c3ccc(CN4CCC(c5cc(-c6ccccn6)[nH]n5)CC4)cc3)nc3sccn23)cc1` [Example 113, ′5-phenyl-6-(4-{[4-(5-pyridin-2-yl-1H-pyrazol-3-yl)piperidin-1-yl]methyl}phenyl)imidazo[2,1-b][1,3]thiazole], which IC50 is on record?
Its IC50 is under 10 µM.

How did the IC50 turn out when `Clc1ccn2c(-c3ccccc3)c(-c3ccc(CN4CCC(c5nnc(-c6ccc[nH]6)[nH]5)CC4)cc3)nc2c1` [Example 107, ′7-chloro-3-phenyl-2-[4-({4-[5-(1H-pyrrol-2-yl)-4H-1,2,4-triazol-3-yl]piperidin-1-yl}methyl)phenyl]imidazo[1,2-a]pyridine] was run?
Its IC50 is under 10 µM.
